Experimental data reported in patent US20260158011A1 (Achieve Life Sciences, Inc., priority 2023, published 2026).
Read-outs that look alike come from different tables or passages of the source.

What was measured:
[1] = biological target: neuronal alpha4, beta2 (α4β2) receptors (Homo sapiens, UniProt P17787+P43681); details: background studies; cited from earlier work
[2] = system: adults who smoked 10 cigarettes per day; details: for Biochemically confirmed continuous smoking abstinence Weeks 3-6, % / Biochemically confirmed continuous smoking abstinence Weeks 9-12, %: primary outcome; for Biochemically confirmed continuous smoking abstinence Weeks 6-24, % / Biochemically confirmed continuous smoking abstinence Weeks 12-24, %: secondary outcome; for Relapse-free abstinence from week 6 to 24: intent-to-treat
Procedure: The trial was conducted at 17 U.S. sites. Adults aged 18 years were eligible if they currently smoked 10 cigarettes per day, had expired air carbon monoxide (CO) ≥10 ppm, and intended to quit smoking. Individuals were excluded if they used any non-cigarette tobacco product (pipe tobacco, cigars, smokeless tobacco, hookah), electronic cigarettes, smoking cessation medication (bupropion, varenicline, nortriptyline, nicotine replacement product), or marijuana (smoked or vaped) in the 28 days before randomization or planned to use them during the study. Other exclusion criteria included uncontrolled hypertension, hepatic or renal impairment, past 3-month history of acute myocardial infarction, unstable angina, cerebrovascular incident, or hospitalization for congestive heart failure, diagnosis of schizophrenia or bipolar disorder, current psychosis, suicidal ideation or suicide risk (Columbia Suicide Severity Rating Scale), (1) moderate to severe depression symptoms (Hospital Anxiety and Depression Scale score ≥11), (2) or a positive urinary screen for illicit drugs. (Full criteria in Trial Protocol).
At a screening visit, individuals provided written informed consent, completed a medical history, brief physical examination, electrocardiogram and laboratory tests, agreed to a quit date 5 to 7 days after study drug initiation, and recorded the number of cigarettes smoked daily for 7 days. At a second visit, participants who met inclusion and exclusion criteria were randomly assigned to study arm, received brief smoking cessation counseling, set their quit date within 5 to 7 days and started study medication the next day. A predetermined central computer-generated randomization sequence was used to assign participants (1:1:1) stratified by study site to receive placebo TID for 12 weeks (Arm A), 3 mg cytisinicline TID for 6 weeks followed by placebo TID for 6 weeks (Arm B), or 3 mg cytisinicline TID for 12 weeks (Arm C).
Study medication was identical-appearing tablets, containing 3 mg cytisinicline or placebo taken orally TID for 12 weeks. Participants were followed for 12 additional weeks after treatment ended. All participants received 10 minutes of brief smoking cessation behavioral support provided by trained counselors at each visit from randomization through week 24.
Assessments after randomization were conducted at in-person visits on day 2, weekly from 1 to 12 weeks, and at weeks 16, 20, and 24. Participants who discontinued study drug prematurely were encouraged to remain in the study and complete all assessment visits. Smoking status was assessed by self-report of cigarette abstinence since the last visit, measured weekly from weeks 2 through 12. Self-reported abstinence at weeks 16, 20, and 24 used the Russell criteria of not smoking more than 5 cigarettes since the last visit (3). A breath carbon monoxide (CO) level was measured at each visit. Verified abstinence required self-reported nonsmoking and a breath carbon monoxide (CO) <10 ppm. Participants not meeting these criteria or with missing data were classified as smoking.
The study had two primary endpoints. […] Study success was defined as either primary endpoint meeting statistical criterion. The secondary outcome measures were verified continuous cigarette abstinence to week 24 (weeks 3 to 24 for Arms B vs. A; weeks 9 to 24 for Arms C vs. A). A third secondary outcome measure compared the risk of relapse to smoking between weeks 6 and 24 among participants assigned to cytisinicline who achieved abstinence by week 6; these individuals were either switched to placebo at week 6 (Arm B) or continued cytisinicline to week 12 (Arm C). Other pre-specified endpoints included comparing the difference between arms in verified 7-day point-prevalence abstinence at each visit from week 2 through week 24 and assessing for evidence of effect modification for subsets defined by baseline attributes.

[3] = system: adults smoking 10+ cigarettes daily; details: for Serious AEs: ORCA-1, pooled cytisinicline arms (n = 203)
Description: Table 13 summarizes the treatment emergent adverse events (TEAEs).

[4] = Arm B Cytisinicline 6 weeks, N = 269
[5] = Arm C Cytisinicline 12 weeks, N = 270
[6] = 1.5 mg downward titration (n = 51)
[7] = 3.0 mg downward titration (n = 50)
[8] = pooled cytisinicline arms (n = 203)

neuronal alpha4, beta2 (α4β2) receptors, sequence (P43681 29-627 limits assumed): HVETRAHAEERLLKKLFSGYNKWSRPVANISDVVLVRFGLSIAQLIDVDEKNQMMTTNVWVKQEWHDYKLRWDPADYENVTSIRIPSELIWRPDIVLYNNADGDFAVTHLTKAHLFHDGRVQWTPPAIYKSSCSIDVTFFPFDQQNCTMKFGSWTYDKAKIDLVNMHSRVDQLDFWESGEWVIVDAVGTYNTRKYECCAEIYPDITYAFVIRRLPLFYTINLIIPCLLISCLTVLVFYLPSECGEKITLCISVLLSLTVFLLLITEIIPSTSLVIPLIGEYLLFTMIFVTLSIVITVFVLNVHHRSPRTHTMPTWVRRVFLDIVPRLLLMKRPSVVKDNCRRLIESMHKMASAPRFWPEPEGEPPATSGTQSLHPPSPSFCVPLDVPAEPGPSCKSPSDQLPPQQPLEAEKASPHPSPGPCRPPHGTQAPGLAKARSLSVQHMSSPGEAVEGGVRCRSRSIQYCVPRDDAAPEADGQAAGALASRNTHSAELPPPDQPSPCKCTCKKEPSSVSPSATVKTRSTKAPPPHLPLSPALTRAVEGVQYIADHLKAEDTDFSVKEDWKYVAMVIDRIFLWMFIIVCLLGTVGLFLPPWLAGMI
neuronal alpha4, beta2 (α4β2) receptors, sequence (P17787 26-502): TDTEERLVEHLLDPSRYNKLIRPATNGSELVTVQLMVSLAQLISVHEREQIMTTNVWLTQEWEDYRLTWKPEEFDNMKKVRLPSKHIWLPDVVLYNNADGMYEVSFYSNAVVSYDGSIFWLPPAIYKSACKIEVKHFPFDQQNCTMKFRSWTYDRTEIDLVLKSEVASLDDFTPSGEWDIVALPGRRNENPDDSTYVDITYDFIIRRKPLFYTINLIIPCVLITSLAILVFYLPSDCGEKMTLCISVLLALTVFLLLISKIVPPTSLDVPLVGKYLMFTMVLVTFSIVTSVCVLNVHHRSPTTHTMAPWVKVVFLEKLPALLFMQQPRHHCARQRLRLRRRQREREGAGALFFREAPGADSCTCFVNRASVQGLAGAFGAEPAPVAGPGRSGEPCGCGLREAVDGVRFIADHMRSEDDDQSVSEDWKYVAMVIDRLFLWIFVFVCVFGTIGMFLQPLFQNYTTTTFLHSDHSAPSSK

O=c1cccc2n1C[C@@H]1CNC[C@H]2C1 [cytisine, (−)-Cytisine]
Binding to α4β2 receptors [1]: bind strongly and preferentially
OR for relapse-free abstinence week 6 to 24, Arm B vs Arm C ([2]; 12-week versus 6-week cytisinicline): 1.31
Biochemically confirmed continuous smoking abstinence Weeks 3-6, % [2, 4]: 25.3%
Biochemically confirmed continuous smoking abstinence Weeks 9-12, % [2, 4]: 22.3%
Biochemically confirmed continuous smoking abstinence Weeks 6-24, % [2, 4]: 8.9%
Biochemically confirmed continuous smoking abstinence Weeks 12-24, % [2, 4]: 13.8%
OR versus placebo, continuous abstinence weeks 3 to 24 ([2]; Arm B vs. A): 3.7
OR versus placebo, continuous abstinence weeks 3 to 6 ([2]; Arm B vs. A (6-week treatment)): 8.0
Risk Difference, continuous smoking abstinence Weeks 6-24 ([2]; Arm B vs. Arm A, Cytisinicline-6 weeks vs. placebo, 95% CI 0.03, 0.09): 0.06
Risk Difference, continuous smoking abstinence Weeks 12-24 ([2]; Arm B vs. Arm A, Cytisinicline-6 weeks vs. placebo, 95% CI 0.04, 0.13): 0.09
Risk Difference, continuous smoking abstinence Weeks 9-12 ([2]; Arm B vs. Arm A, Cytisinicline-6 weeks vs. placebo, 95% CI 0.10, 0.20): 0.15
Risk Difference, continuous smoking abstinence Weeks 3-6 ([2]; Arm B vs. Arm A, Cytisinicline-6 weeks vs. placebo, 95% CI 0.16, 0.25): 0.21
Relative Risk, continuous smoking abstinence Weeks 6-24 ([2]; Arm B vs. Arm A, Cytisinicline-6 weeks vs. placebo, 95% CI 1.56, 8.50): 3.45
Relative Risk, continuous smoking abstinence Weeks 12-24 ([2]; Arm B vs. Arm A, Cytisinicline-6 weeks vs. placebo, 95% CI 1.59, 5.46): 2.87
Relative Risk, continuous smoking abstinence Weeks 9-12 ([2]; Arm B vs. Arm A, Cytisinicline-6 weeks vs. placebo, 95% CI 1.98, 5.30): 3.18
Relative Risk, continuous smoking abstinence Weeks 3-6 ([2]; Arm B vs. Arm A, Cytisinicline-6 weeks vs. placebo, 95% CI 3.26, 10.74): 5.71
NNT (number needed to treat), continuous smoking abstinence Weeks 3-6 ([2]; Arm B vs. Arm A, Cytisinicline-6 weeks vs. placebo, 95% CI 4, 7): 5
NNT (number needed to treat), continuous smoking abstinence Weeks 9-12 ([2]; Arm B vs. Arm A, Cytisinicline-6 weeks vs. placebo, 95% CI 4, 11): 7
NNT (number needed to treat), continuous smoking abstinence Weeks 12-24 ([2]; Arm B vs. Arm A, Cytisinicline-6 weeks vs. placebo, 95% CI 7, 24): 11
NNT (number needed to treat), continuous smoking abstinence Weeks 6-24 ([2]; Arm B vs. Arm A, Cytisinicline-6 weeks vs. placebo, 95% CI 10, 40): 16
Biochemically-confirmed continuous smoking abstinence, weeks 3 to 6 ([2]; Arm B: 3 mg cytisinicline TID 6 weeks then placebo 6 weeks): 25.3%
Continuous abstinence weeks 3 to 24 ([2]; Arm B: 6-week cytisinicline treatment): 8.9%
Relapse-free abstinence from week 6 to 24 ([2]; Arm B: switched to placebo at week 6): 10.4%
Biochemically confirmed continuous smoking abstinence Weeks 3-6, % [2, 5]: 22.2%
Biochemically confirmed continuous smoking abstinence Weeks 9-12, % [2, 5]: 32.6%
Biochemically confirmed continuous smoking abstinence Weeks 6-24, % [2, 5]: 11.9%
Biochemically confirmed continuous smoking abstinence Weeks 12-24, % [2, 5]: 21.1%
OR versus placebo, continuous abstinence weeks 9 to 24 ([2]; Arm C vs. A): 5.3
OR versus placebo, continuous abstinence weeks 9 to 12 ([2]; Arm C vs. A (12-week treatment)): 6.3
Risk Difference, continuous smoking abstinence Weeks 6-24 ([2]; Arm C vs. Arm A, Cytisinicline-12 weeks vs. placebo, 95% CI 0.05, 0.12): 0.09
Risk Difference, continuous smoking abstinence Weeks 12-24 ([2]; Arm C vs. Arm A, Cytisinicline-12 weeks vs. placebo, 95% CI 0.11, 0.20): 0.16
Risk Difference, continuous smoking abstinence Weeks 3-6 ([2]; Arm C vs. Arm A, Cytisinicline-12 weeks vs. placebo, 95% CI 0.13, 0.22): 0.18
Risk Difference, continuous smoking abstinence Weeks 9-12 ([2]; Arm C vs. Arm A, Cytisinicline-12 weeks vs. placebo, 95% CI 0.20, 0.30): 0.26
Relative Risk, continuous smoking abstinence Weeks 6-24 ([2]; Arm C vs. Arm A, Cytisinicline-12 weeks vs. placebo, 95% CI 2.15, 11.05): 4.59
Relative Risk, continuous smoking abstinence Weeks 12-24 ([2]; Arm C vs. Arm A, Cytisinicline-12 weeks vs. placebo, 95% CI 2.53, 8.15): 4.40
Relative Risk, continuous smoking abstinence Weeks 3-6 ([2]; Arm C vs. Arm A, Cytisinicline-12 weeks vs. placebo, 95% CI 2.842, 9.50): 5.02
Relative Risk, continuous smoking abstinence Weeks 9-12 ([2]; Arm C vs. Arm A, Cytisinicline-12 weeks vs. placebo, 95% CI 2.98, 7.58): 4.65
NNT (number needed to treat), continuous smoking abstinence Weeks 9-12 ([2]; Arm C vs. Arm A, Cytisinicline-12 weeks vs. placebo, 95% CI 3, 6): 4
NNT (number needed to treat), continuous smoking abstinence Weeks 3-6 ([2]; Arm C vs. Arm A, Cytisinicline-12 weeks vs. placebo, 95% CI 4, 8): 6
NNT (number needed to treat), continuous smoking abstinence Weeks 12-24 ([2]; Arm C vs. Arm A, Cytisinicline-12 weeks vs. placebo, 95% CI 4, 9): 6
NNT (number needed to treat), continuous smoking abstinence Weeks 6-24 ([2]; Arm C vs. Arm A, Cytisinicline-12 weeks vs. placebo, 95% CI 8, 20): 11
Biochemically-confirmed continuous smoking abstinence, weeks 9 to 12 ([2]; Arm C: 3 mg cytisinicline TID 12 weeks): 32.6%
Continuous abstinence weeks 9 to 24 ([2]; Arm C: 12-week cytisinicline treatment): 21.1%
Relapse-free abstinence from week 6 to 24 ([2]; Arm C: continued cytisinicline to week 12): 13.3%
Odds Ratio Arm B vs. Arm A, continuous smoking abstinence Weeks 6-24 ([2]; Cytisinicline 6 wk vs. placebo, 95% CI 1.5 to 10.2, P .002): 3.7
Odds Ratio Arm B vs. Arm A, continuous smoking abstinence Weeks 3-6 ([2]; Cytisinicline 6 wk vs. placebo, 95% CI 3.9 to 16.3, P <.001): 8.0
Odds Ratio Arm C vs. Arm A, continuous smoking abstinence Weeks 12-24 ([2]; Cytisinicline 12 wk vs. placebo, 95% CI 2.8 to 11.1, P <.001): 5.3
Odds Ratio Arm C vs. Arm A, continuous smoking abstinence Weeks 9-12 ([2]; Cytisinicline 12 wk vs. placebo, 95% CI 3.7 to 11.6, P <.001): 6.3
Mean total cigarette craving score (QSU-brief) ([2]; baseline to week 6, cytisinicline for 6 or 12 weeks compared to placebo): declined more rapidly
TEAE: Abnormal dreams ([3]; 1.5 mg TID (n = 52)): 4 (8%) n (%)
TEAE: At least 1 AE ([3]; 1.5 mg TID (n = 52)): 20 (39%) n (%)
TEAE: Constipation ([3]; 1.5 mg TID (n = 52)): 1 (2%) n (%)
TEAE: Fatigue ([3]; 1.5 mg TID (n = 52)): 3 (6%) n (%)
TEAE: Headache ([3]; 1.5 mg TID (n = 52)): 6 (12%) n (%)
TEAE: Insomnia ([3]; 1.5 mg TID (n = 52)): 4 (8%) n (%)
TEAE: Nausea ([3]; 1.5 mg TID (n = 52)): 1 (2%) n (%)
TEAE: URTI ([3]; 1.5 mg TID (n = 52)): 5 (10%) n (%)
TEAE: Abnormal dreams [3, 6]: 4 (8%) n (%)
TEAE: At least 1 AE [3, 6]: 29 (57%) n (%)
TEAE: Fatigue [3, 6]: 1 (2%) n (%)
TEAE: Headache [3, 6]: 1 (2%) n (%)
TEAE: Insomnia [3, 6]: 3 (6%) n (%)
TEAE: Nausea [3, 6]: 5 (10%) n (%)
TEAE: URTI [3, 6]: 3 (6%) n (%)
TEAE: Abnormal dreams ([3]; 3.0 mg TID (n = 50)): 3 (6%) n (%)
TEAE: At least 1 AE ([3]; 3.0 mg TID (n = 50)): 21 (42%) n (%)
TEAE: Constipation ([3]; 3.0 mg TID (n = 50)): 3 (6%) n (%)
TEAE: Fatigue ([3]; 3.0 mg TID (n = 50)): 1 (2%) n (%)
TEAE: Headache ([3]; 3.0 mg TID (n = 50)): 2 (4%) n (%)
TEAE: Insomnia ([3]; 3.0 mg TID (n = 50)): 3 (6%) n (%)
TEAE: Nausea ([3]; 3.0 mg TID (n = 50)): 3 (6%) n (%)
TEAE: URTI ([3]; 3.0 mg TID (n = 50)): 3 (6%) n (%)
TEAE: Abnormal dreams [3, 7]: 7 (14%) n (%)
TEAE: At least 1 AE [3, 7]: 23 (46%) n (%)
TEAE: Fatigue [3, 7]: 2 (4%) n (%)
TEAE: Headache [3, 7]: 1 (2%) n (%)
TEAE: Insomnia [3, 7]: 4 (8%) n (%)
TEAE: Nausea [3, 7]: 3 (6%) n (%)
TEAE: URTI [3, 7]: 2 (4%) n (%)
Serious AEs [3]: no serious or severe adverse events
Serious AEs ([3]; listed as Cytisinicline): 0
TEAE: Abnormal dreams [3, 8]: 18 (9%) n (%)
TEAE: At least 1 AE [3, 8]: 93 (46%) n (%)
TEAE: Constipation [3, 8]: 4 (2%) n (%)
TEAE: Fatigue [3, 8]: 7 (3%) n (%)
TEAE: Headache [3, 8]: 10 (5%) n (%)
TEAE: Insomnia [3, 8]: 14 (7%) n (%)
TEAE: Nausea [3, 8]: 12 (6%) n (%)
TEAE: URTI [3, 8]: 13 (6%) n (%)
